From US8415312B2, “Compound which is a nystatin derivative” (Biosergen AS, priority 2007, dated 2013)
Converted amounts (≈) assume the structure as drawn. “And” between values parts separate entries of the source, which are not always exact repeats. Identical values can stand only once.

Assays:
[1] = system: Candida albicans ATCC 14053; assay: Antifungal susceptibility study (1), broth microdilution MIC; assay type: cell-based; details: lowest concentration preventing any visible growth, read at 48 hours, 35° C., RPMI 1640 pH 7.0
Summary of the method: (§1)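 Broth microdilution in test medium at pH 7.0 with two-fold compound dilutions (DMSO stocks diluted 50-fold into medium), inoculated with freshly grown yeast cultures. Plates were incubated without agitation at 35° C. for C. albicans or 25° C. for C. humicolus. MIC was taken as the concentration with no visible growth, read at 48 hours.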

[2] = system: Cryptococcus humicolus ATCC 9949; assay: as above; assay type: cell-based; details: lowest concentration preventing any visible growth, read at 48 hours, 25° C., RPMI 1640 pH 7.0
Summary of the method: as §1

[3] = system: Aspergillus niger ATCC 16404; assay: as above; assay type: cell-based; details: lowest concentration preventing any visible growth, read at 48 hours, 35° C., RPMI 1640 pH 7.0
Summary of the method: (§2)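 Broth microdilution was run at pH 7.0 with compounds diluted from DMSO solutions and mixed 1:1 with conidial inoculum. Spore suspensions were adjusted to OD530 0.09-0.11 for A. niger or 0.15-0.17 for F. oxysporum, then diluted 1:50. Plates were incubated at 35° C without agitation, and MIC was read at 48 hours as absence of visible growth.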

[4] = system: Fusarium oxysporum VKM F-140; assay: as above; assay type: cell-based; details: lowest concentration preventing any visible growth, read at 48 hours, 35° C., RPMI 1640 pH 7.0
Summary of the method: as §2

erythrocytes = assay: In vitro toxicity study, haemolysis (Tables 11 and 12); assay type: cell-based, horse; details: for Haemolysis of erythrocytes, Mean ± S.E.M.: 25 μM (Table 12); for Haemolysis of erythrocytes: 25 μM, individual blood samples (Table 12)
Procedure: The toxicity of various nystatin derivatives was tested at 2 and 5 μg/mL and at 25 μM.
Compounds were dissolved in DMSO at 5 mg/mL and 0.1 mL samples with different concentrations were prepared in DMSO. The samples were mixed with 0.9 mL PBS buffer containing 2.5% horse blood (PBS-HB; kept on ice) and incubated at 37° C. for 30 min without agitation.
Cells were pelleted by centrifugation at 5000 rpm for 5 min and haemolysis was evaluated by measuring OD545. 100% haemolysis was defined as the OD545 value obtained from a suspension of 2.5% horse blood in distilled water.

human blood erythrocytes = assay: In vitro toxicity study, haemolysis (Table 10); assay type: cell-based; details: for Haemolysis of human blood erythrocytes: individual blood samples # 1-3

SMILES	MIC Candida albicans ATCC 14053 [1]	MIC Cryptococcus humicolus ATCC 9949 [2]	MIC Aspergillus niger ATCC 16404 [3]	MIC Fusarium oxysporum VKM F-140 [4]	Haemolysis of erythrocytes, Mean ± S.E.M. (erythrocytes)	Haemolysis of erythrocytes (erythrocytes)	Haemolysis of human blood erythrocytes, MEAN ± SE (human blood erythrocytes; 2 μg/mL)	Haemolysis of human blood erythrocytes (human blood erythrocytes; 2 μg/mL)	Haemolysis of human blood erythrocytes, MEAN ± SE (human blood erythrocytes; 5 μg/mL)	Haemolysis of human blood erythrocytes (human blood erythrocytes; 5 μg/mL)
CC1C=CC=CC=CC=CC=CC=CC=CC(OC2OC(C)C(O)C(NCC3(O)OCC(O)C(O)C3O)C2O)CC2OC(O)(CC(O)C(O)CCC(O)CC(O)CC(O)CC(=O)OC(C)C(C)C1O)CC(O)C2C(=O)O (single isomer, unassigned) [Compound 17]	1 µg/mL (≈ 0.921 µM)	1 µg/mL (≈ 0.921 µM)	2 µg/mL (≈ 1.84 µM)	8 µg/mL (≈ 7.36 µM)	2.4 ± 0.6%	1.7% (2×) and 2.1% and 0.8% and 3.3% and 4.8%				
CNC(=O)C1C(O)CC2(O)CC(O)C(O)CCC(O)CC(O)CC(O)CC(=O)OC(C)C(C)C(O)C(C)C=CC=CC=CC=CC=CC=CC=CC(OC3OC(C)C(O)C(N)C3O)CC1O2 (centres unmarked) [Compound 6]	2 µg/mL (≈ 2.13 µM)	2 µg/mL (≈ 2.13 µM)	4 µg/mL (≈ 4.27 µM)	4 µg/mL (≈ 4.27 µM)	3.7 ± 0.6%	3.7% and 4.3% and 3.2% and 2% and 2.4% and 3.3% and 7%				
CC1C=CC=CC=CC=CC=CC=CC=CC(OC2OC(C)C(O)C(N)C2O)CC2OC(O)(CC(O)C(O)CCC(O)CC(O)CC(O)CC(=O)OC(C)C(C)C1O)CC(O)C2C(=O)NC1C(O)OC(CO)C(O)C1O (centres unmarked) [Compound 16]	1 µg/mL (≈ 0.921 µM)	1 µg/mL (≈ 0.921 µM)	2 µg/mL (≈ 1.84 µM)	8 µg/mL (≈ 7.37 µM)			2.4 ± 0.12%	2.3% and 2.2% and 2.6%	3.1 ± 0.14%	3.1% and 2.9% and 3.4%
CC1C=CC=CC=CC=CC=CC=CC=CC(OC2OC(C)C(O)C(NCC3(O)OCC(O)C(O)C3O)C2O)CC2OC(O)(CC(O)C(O)CCC(O)CC(O)CC(O)CC(=O)OC(C)C(C)C1O)CC(O)C2C(=O)O (single isomer, unassigned) [Compound 18]	1 µg/mL (≈ 0.921 µM)	1 µg/mL (≈ 0.921 µM)	2 µg/mL (≈ 1.84 µM)	8 µg/mL (≈ 7.36 µM)	3.9 ± 1.3%	3.0% and 3.2% and 9.7% and 1.0% and 1.5% and 5.3%				
